Reference: patent US12692235B2, “Fused ring compound and application thereof” (WUHAN LL SCIENCE AND TECHNOLOGY DEVELOPMENT CO., LTD., priority 2019, dated 2026)

Target: T1, hP2X4 (human purinergic P2X receptor subtype 4) (Homo sapiens, UniProt Q99571)
T1 sequence (Q99571 1-404 isoform Q99571-2): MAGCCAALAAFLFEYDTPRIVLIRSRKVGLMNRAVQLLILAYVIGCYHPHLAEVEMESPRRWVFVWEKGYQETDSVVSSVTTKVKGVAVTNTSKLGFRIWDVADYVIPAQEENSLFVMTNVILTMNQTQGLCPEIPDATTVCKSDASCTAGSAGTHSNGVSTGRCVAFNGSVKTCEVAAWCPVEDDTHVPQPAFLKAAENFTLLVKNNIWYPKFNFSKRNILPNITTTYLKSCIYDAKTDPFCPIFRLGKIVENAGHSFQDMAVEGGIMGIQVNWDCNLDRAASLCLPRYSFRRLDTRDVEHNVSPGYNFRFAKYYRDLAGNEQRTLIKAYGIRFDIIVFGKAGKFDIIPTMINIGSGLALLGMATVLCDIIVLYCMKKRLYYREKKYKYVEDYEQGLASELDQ
Conditions: P2X4 IC50 (nM), HEK293 cells stably expressing hP2X4; agonist BZ-ATP 2.5 μM; FLIPR calcium
Procedure: Cells at 400,000 cells/mL were seeded into a 384-well plate (10,000 cells/well) 18-24 h prior to the FLIPR experiment and then incubated overnight in a cell incubator. […] Each well was added with 20 μL of 0.5×Calcium 6 fluorescent dye (Molecular Devices, R8190) and then the cells were subjected to dye-loading incubation at 37° C. for 1.5 h. Each well was added with 10 μL of respective test compound (dissolved in DMSO at a concentration of 10 mM and serially diluted with buffer) or vehicle and the mixture was equilibrated for 30 min at room temperature.

| SMILES | IC50 [nM] |
| --- | --- |
| NS(=O)(=O)c1cc(NC(=O)Cc2ccccc2Cl)cc2cnc(Cl)cc12 [Compound 5, N-(3-chloro-5-sulfamoylisoquinolin-7-yl)-2-(2-chlorophenyl)acetamide] | 50 to 200 |
| NS(=O)(=O)c1cc(NC(=O)Cc2ccccc2Cl)cc2cnc(F)cc12 [Compound 7, 2-(2-chlorophenyl)-N-(3-fluoro-5-sulfamoylisoquinolin-7-yl)acetamide] | 50 to 200 |
| CCOc1nccc2c(S(N)(=O)=O)cc(NC(=O)Cc3ccccc3Cl)cc12 [Compound 8, 2-(2-chlorophenyl)-N-(1-ethoxy-5-sulfamoylisoquinolin-7-yl)acetamide] | 10 to 50 |
| CC(C)Oc1nccc2c(S(N)(=O)=O)cc(NC(=O)Cc3ccccc3Cl)cc12 [Compound 9, 2-(2-chlorophenyl)-N-(1-isopropoxy-5-sulfamoylisoquinolin-7-yl)acetamide] | 10 to 50 |
| NS(=O)(=O)c1cc(NC(=O)Cc2ccccc2Cl)cc2c(OC3CC3)nccc12 [Compound 10, 2-(2-chlorophenyl)-N-(1-cyclopropoxy-5-sulfamoylisoquinolin-7-yl)acetamide] | 10 to 50 |
| NS(=O)(=O)c1cc(NC(=O)Cc2ccccc2Cl)cc2c(OC3CCC3)nccc12 [Compound 11, 2-(2-chlorophenyl)-N-(1-cyclobutoxy-5-sulfamoylisoquinolin-7-yl)acetamide] | 10 to 50 |
| NS(=O)(=O)c1cc(NC(=O)Cc2ccccc2Cl)cc2c(OC3CNC3)nccc12 [Compound 12, N-(1-(azetidin-3-oxy)-5-sulfamoylisoquinolin-7-yl)-2-(2-chlorophenyl)acetamide] | 10 to 50 |
| NS(=O)(=O)c1cc(NC(=O)Cc2ccccc2Cl)cc2c(OC3CCCC3)nccc12 [Compound 13] | 10 to 50 |
| CC(C)COc1nccc2c(S(N)(=O)=O)cc(NC(=O)Cc3ccccc3Cl)cc12 [Compound 14, 2-(2-chlorophenyl)-N-(1-isobutoxy-5-sulfamoylisoquinolin-7-yl)acetamide] | 10 to 50 |
| CC(C)CCOc1nccc2c(S(N)(=O)=O)cc(NC(=O)Cc3ccccc3Cl)cc12 [Compound 15, 2-(2-chlorophenyl)-N-(1-(isopentyloxy)-5-sulfamoylisoquinolin-7-yl)acetamide] | 50 to 200 |
| NS(=O)(=O)c1cc(NC(=O)Cc2ccccc2Cl)cc2c(OCC3CC3)nccc12 [Compound 16] | 10 to 50 |
| NS(=O)(=O)c1cc(NC(=O)Cc2ccccc2Cl)cc2c(OCCC3CC3)nccc12 [Compound 17, 2-(2-chlorophenyl)-N-(1-(2-cyclopropylethoxy)-5-sulfamoylisoquinolin-7-yl)acetamide] | 50 to 200 |
| NS(=O)(=O)c1cc(NC(=O)Cc2ccccc2Cl)cc2cncc(F)c12 [Compound 18, 2-(2-chlorophenyl)-N-(4-fluoro-5-sulfamoylisoquinolin-7-yl)acetamide] | 50 to 200 |
| N#Cc1cc2c(S(N)(=O)=O)cc(NC(=O)Cc3ccccc3Cl)cc2cn1 [Compound 20, 2-(2-chlorophenyl)-N-(3-cyano-5-sulfamoylisoquinolin-7-yl)acetamide] | 10 to 50 |
| NS(=O)(=O)c1cc(NC(=O)Cc2ccccc2Cl)cc2cnc(-n3ccnc3)cc12 [Compound 22, N-(3-(1H-imidazol-1-yl)-5-sulfamoylisoquinolin-7-yl)-2-(2-chlorophenyl)acetamide] | 10 to 50 |
| NS(=O)(=O)c1cc(NC(=O)Cc2ccccc2Cl)cc2c(C(F)(F)F)nccc12 [Compound 29, 2-(2-chlorophenyl)-N-(-5-sulfamoyl-1-(trifluoromethyl)isoquinolin-7-yl)acetamide] | 10 to 50 |
| NS(=O)(=O)c1cc(NC(=O)Cc2ccccc2Cl)cc2c(Oc3ccccc3)nccc12 [Compound 30, 2-(2-chlorophenyl)-N-(1-phenoxy-5-sulfamoylisoquinolin-7-yl)acetamide] | 10 to 50 |
| NS(=O)(=O)c1cc(NC(=O)Cc2ccccc2Cl)cc2c(Oc3ccc(F)cc3)nccc12 [Compound 31, 2-(2-chlorophenyl)-N-(1-(4-fluorophenoxy)-5-sulfamoylisoquinolin-7-yl)acetamide] | 10 to 50 |
| NS(=O)(=O)c1cc(NC(=O)Cc2ccccc2Cl)cc2c(OCc3ccc(F)cc3)nccc12 [Compound 32, 2-(2-chlorophenyl)-N-(1-((4-fluorobenzyl)oxo)-5-sulfamoylisoquinolin-7-yl)acetamide] | 10 to 50 |
| CC(=O)N1CC(Oc2nccc3c(S(N)(=O)=O)cc(NC(=O)Cc4ccccc4Cl)cc23)C1 [Compound 33, N-(1-((1-acetylazetidin-3-yl)oxo)-5-sulfamoylisoquinolin-7-yl)-2-(2-chlorophenyl)acetamide] | 10 to 50 |
| Cc1ccc(Oc2nccc3c(S(N)(=O)=O)cc(NC(=O)Cc4ccccc4Cl)cc23)cc1 [Compound 34, 2-(2-chlorophenyl)-N-(5-sulfamoyl-1-(p-tolyloxy)isoquinolin-7-yl)acetamide] | 10 to 50 |

Other lines, results leading:

| IC50 [nM] | SMILES |
| --- | --- |
| 10 to 50 | NS(=O)(=O)c1cc(NC(=O)Cc2ccccc2Cl)cc2c(Cl)nccc12 [Compound 2, N-(1-chloro-5-sulfamoylisoquinolin-7-yl)-2-(2-chlorophenyl)acetamide] |
| 10 to 50 | NS(=O)(=O)c1cc(NC(=O)Cc2ccccc2Cl)cc2ncccc12 [Compound 4, 2-(2-chlorophenyl)-N-(5-sulfamoylquinolin-7-yl)acetamide] |
| 10 to 50 | NS(=O)(=O)c1cc(NC(=O)Cc2ccccc2Cl)cc2cnccc12 [Compound 6] |
| < 10 | NS(=O)(=O)c1cc(NC(=O)Cc2ccccc2Cl)cc2cnc(C(F)(F)F)cc12 [Compound 19, 2-(2-chlorophenyl)-N-(−5-sulfamoyl-3-(trifluoromethyl)isoquinolin-7-yl)acetamide] |
| < 10 | NS(=O)(=O)c1cc(NC(=O)Cc2ccccc2Cl)cc2cnc(C3CC3)cc12 [Compound 21, 2-(2-chlorophenyl)-N-(3-cyclopropyl-5-sulfamoylisoquinolin-7-yl)acetamide] |
| < 10 | NS(=O)(=O)c1cc(NC(=O)Cc2ccccc2Cl)cc2c(C3CC3)nccc12 [Compound 23, 2-(2-chlorophenyl)-N-(1-cyclopropyl-5-sulfamoylisoquinolin-7-yl)acetamide] |
| < 10 | CC(C)c1nccc2c(S(N)(=O)=O)cc(NC(=O)Cc3ccccc3Cl)cc12 [Compound 24, 2-(2-chlorophenyl)-N-(1-isopropyl-5-sulfamoylisoquinolin-7-yl)acetamide] |
| < 10 | NS(=O)(=O)c1cc(NC(=O)Cc2ccccc2Cl)cc2c(C(F)F)nccc12 [Compound 25, 2-(2-chlorophenyl)-N-(1-(difluoromethyl)-5-sulfamoylisoquinolin-7-yl)acetamide] |
| < 10 | COc1nccc2c(S(N)(=O)=O)cc(NC(=O)Cc3c(F)cccc3Cl)cc12 [Compound 26, 2-(2-chloro-6-fluorophenyl)-N-(1-methoxy-5-sulfamoylisoquinolin-7-yl)acetamide] |
| < 10 | COc1nccc2c(S(N)(=O)=O)cc(NC(=O)Cc3cc(F)c(F)cc3Cl)cc12 [Compound 27, 2-(2-chloro-4,5-difluorophenyl)-N-(1-methoxy-5-sulfamoylisoquinolin-7-yl)acetamide] |
| < 10 | NS(=O)(=O)c1cc(NC(=O)Cc2ccccc2Cl)cc2c(OC(F)F)nccc12 [Compound 28, 2-(2-chlorophenyl)-N-(1-(difluoromethoxy)-5-sulfamoylisoquinolin-7-yl)acetamide] |
